Usually EC50 stands for the concentration needed to bring the measured effect to its halfway point. Low values mean higher potency in that assay, high ones lower potency in that assay.

The source of these data is patent US20260265233A1, “BENZOTHIOPHENE DERIVATIVES AS RXFP1 AGONISTS” (BRISTOL-MYERS SQUIBB COMPANY, priority 2021, published 2026).

This assay deals with T1, human RXFP1 (Homo sapiens, UniProt Q9HBX9).
T1 construct: expressed in transfected cells
T1 sequence (Q9HBX9 1-757): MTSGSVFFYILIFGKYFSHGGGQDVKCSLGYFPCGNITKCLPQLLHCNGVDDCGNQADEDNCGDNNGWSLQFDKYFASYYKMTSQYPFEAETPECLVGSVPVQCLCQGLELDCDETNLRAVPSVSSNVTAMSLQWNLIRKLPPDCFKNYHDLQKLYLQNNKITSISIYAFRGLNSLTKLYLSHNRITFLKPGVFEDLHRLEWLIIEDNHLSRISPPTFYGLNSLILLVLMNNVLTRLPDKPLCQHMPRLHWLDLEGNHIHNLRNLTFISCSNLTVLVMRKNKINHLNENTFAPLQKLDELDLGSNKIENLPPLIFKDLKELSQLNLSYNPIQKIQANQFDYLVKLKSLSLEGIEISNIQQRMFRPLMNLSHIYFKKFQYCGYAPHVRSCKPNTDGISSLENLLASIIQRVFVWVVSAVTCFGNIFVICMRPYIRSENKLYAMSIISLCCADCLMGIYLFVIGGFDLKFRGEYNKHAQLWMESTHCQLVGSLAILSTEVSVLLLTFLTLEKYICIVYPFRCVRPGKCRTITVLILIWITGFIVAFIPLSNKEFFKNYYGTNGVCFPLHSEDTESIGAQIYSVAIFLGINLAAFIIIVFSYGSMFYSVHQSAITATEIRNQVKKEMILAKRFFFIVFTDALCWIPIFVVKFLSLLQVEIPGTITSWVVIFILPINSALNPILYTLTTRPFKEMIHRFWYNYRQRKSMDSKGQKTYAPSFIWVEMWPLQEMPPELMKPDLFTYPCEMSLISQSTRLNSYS
Kind of assay: hRXFP1 HEK293 cAMP assay (HTRF). Format: cell-based. The following applies: HEK293 cells stably expressing human RXFP1; 30 min at rt; intracellular cAMP by HTRF. The procedure:
RXFP1 Cyclic Adenosine Monophosphate (cAMP) Assays. Human embryonic kidney cells 293 (HEK293) cells and HEK293 cells stably expressing human RXFP1, were cultured in MEM medium supplemented with 10% qualified FBS, and 300 μg/ml hygromycin (Life Technologies). Cells were dissociated and suspended in assay buffer. The assay buffer was HBSS buffer (with calcium and magnesium) containing 20 mM HEPES, 0.05% BSA, and 0.5 mM IBMX. Cells (3000 cells per well, except 1500 cell per well for HEK293 cells stably expressing human RXFP1) were added to 384-well Proxiplates (Perkin-Elmer). Cells were immediately treated with test compounds in DMSO (2% final) at final concentrations in the range of 0.010 nM to 50 μM. Cells were incubated for 30 min at rt. The level of intracellular cAMP was determined using the HTRF HiRange cAMP assay reagent kit (Cisbio) according to manufacturer's instructions. Solutions of cryptate conjugated anti-cAMP and d2 fluorophore-labelled cAMP were made in a supplied lysis buffer separately. Upon completion of the reaction, the cells were lysed with equal volume of the d2-cAMP solution and anti-cAMP solution. After a 1 h rt incubation, time-resolved fluorescence intensity was measured using the Envision (Perkin-Elmer) at 400 nm excitation and dual emission at 590 nm and 665 nm. A calibration curve was constructed with an external cAMP standard at concentrations ranging from 2.7 μM to 0.1 pM by plotting the fluorescent intensity ratio from 665 nm emission to the intensity from the 590 nm emission against cAMP concentrations. The potency and activity of a compound to […] cAMP production was then determined by fitting to a 4-parametric logistic equation from a plot of cAMP level versus compound concentrations.
The examples disclosed below were tested in the human RXFP1 (hRXFP1) HEK293 cAMP assay described above and found to have agonist activity.
(Changes in cAMP serve as a functional read-out for many G protein-coupled receptors.)
As for `COc1ccc(C2=NOC3CN(CC(C)(C)O)CC23)cc1C(=O)Nc1c(C(=O)Nc2ccc(F)c(C(F)(F)F)c2)sc2cc(C(F)(F)F)ccc12` (single isomer, unassigned) [Example 54, N-(4-fluoro-3-(trifluoromethyl)phenyl)-3-(5-(5-(2-hydroxy-2-methylpropyl)-3a, 5,6,6a-tetrahydro-4H-pyrrolo[3,4-d]isoxazol-3-yl)-2-methoxybenzamido)-6-(trifluoromethyl)benzo[b]thiophene-2-carboxamide], the EC50 was found to be 306 nM. In turn, `COc1ccc(C2=NOC3CC(C(C)(C)O)CC23)cc1C(=O)Nc1c(C(=O)Nc2ccc(F)c(C(F)(F)F)c2)sc2cc(C(F)(F)F)ccc12` (single isomer, unassigned) [Example 55, N-(4-fluoro-3-(trifluoromethyl)phenyl)-3-(5-(5-(2-hydroxypropan-2-yl)-3a, 5,6,6a-tetrahydro-4H-cyclopenta[d]isoxazol-3-yl)-2-methoxybenzamido)-6-(trifluoromethyl)benzo[b]thiophene-2-carboxamide] displayed an EC50 of 320 nM. Then `COc1ccc(C2=NOC3CC(C(C)(C)O)CC23)cc1C(=O)Nc1c(C(=O)Nc2ccc(F)c(C(F)(F)F)c2)sc2cc(C(F)(F)F)ccc12` (single isomer, unassigned) [Example 56, N-(4-fluoro-3-(trifluoromethyl)phenyl)-3-(5-(5-(2-hydroxypropan-2-yl)-3a, 5,6,6a-tetrahydro-4H-cyclopenta[d]isoxazol-3-yl)-2-methoxybenzamido)-6-(trifluoromethyl)benzo[b]thiophene-2-carboxamide], with 9.5 nM; and `COc1ccc(C2CCCC(NC3COC3)C2)cc1C(=O)Nc1c(C(=O)Nc2ccc(F)c(C(F)(F)F)c2)sc2cc(C(F)(F)F)ccc12` (single isomer, unassigned) [Example 60, N-(4-fluoro-3-(trifluoromethyl)phenyl)-3-(2-methoxy-5-(3-(oxetan-3-ylamino)cyclohexyl)benzamido)-6-(trifluoromethyl) benzo[b] thiophene-2-carboxamide], with 743 nM. The compound `COc1ccc(C2CCCC(NC3COC3)C2)cc1C(=O)Nc1c(C(=O)Nc2ccc(F)c(C(F)(F)F)c2)sc2cc(C(F)(F)F)ccc12` (single isomer, unassigned) [Example 61, N-(4-fluoro-3-(trifluoromethyl)phenyl)-3-(2-methoxy-5-(3-(oxetan-3-ylamino)cyclohexyl)benzamido)-6-(trifluoromethyl) benzo[b] thiophene-2-carboxamide] displayed an EC50 of 599 nM. As for `COc1ccc(C2CCCC(NC3COC3)C2)cc1C(=O)Nc1c(C(=O)Nc2ccc(F)c(C(F)(F)F)c2)sc2cc(C(F)(F)F)ccc12` (single isomer, unassigned) [Example 62, N-(4-fluoro-3-(trifluoromethyl)phenyl)-3-(2-methoxy-5-(3-(oxetan-3-ylamino)cyclohexyl)benzamido)-6-(trifluoromethyl) benzo[b] thiophene-2-carboxamide], the figure is 1460 nM.

Take `COc1ccc(C2CCCC(NC3COC3)C2)cc1C(=O)Nc1c(C(=O)Nc2ccc(F)c(C(F)(F)F)c2)sc2cc(C(F)(F)F)ccc12` (single isomer, unassigned) [Example 63, N-(4-fluoro-3-(trifluoromethyl)phenyl)-3-(2-methoxy-5-(3-(oxetan-3-ylamino)cyclohexyl)benzamido)-6-(trifluoromethyl) benzo[b] thiophene-2-carboxamide]: a half-maximal effect (EC50) was put at 2060 nM. As for `COc1ccc(N2CCCC(CC(=O)O)C2)cc1C(=O)Nc1c(C(=O)Nc2ccc(F)c(C(F)(F)F)c2)sc2cc(C(F)(F)F)ccc12` (single isomer, unassigned) [Example 64, 2-(1-(3-((2-((4-fluoro-3-(trifluoromethyl)phenyl)carbamoyl)-6-(trifluoromethyl)benzo[b]thiophen-3-yl)carbamoyl)-4-methoxyphenyl)piperidin-3-yl)acetic acid], the figure is 293 nM. Compound `COc1ccc(N2CCCC(CC(=O)O)C2)cc1C(=O)Nc1c(C(=O)Nc2ccc(F)c(C(F)(F)F)c2)sc2cc(C(F)(F)F)ccc12` (single isomer, unassigned) [Example 65, 2-(1-(3-((2-((4-fluoro-3-(trifluoromethyl)phenyl)carbamoyl)-6-(trifluoromethyl)benzo[b]thiophen-3-yl)carbamoyl)-4-methoxyphenyl)piperidin-3-yl)acetic acid] yielded an EC50 of 662 nM.

In turn, `COc1ccc(C2CCCN(CCO)CC2)cc1C(=O)Nc1c(C(=O)Nc2ccc(F)c(C(F)(F)F)c2)sc2cc(C(F)(F)F)ccc12` (single isomer, unassigned) [Example 69, N-(4-fluoro-3-(trifluoromethyl)phenyl)-3-(5-(1-(2-hydroxyethyl)azepan-4-yl)-2-methoxy-benzamido)-6-(trifluoromethyl) benzo[b] thiophene-2-carboxamide] registered an EC50 of 760 nM. In the case of `COc1ccc(C2CCCN(CC(N)=O)CC2)cc1C(=O)Nc1c(C(=O)Nc2ccc(F)c(C(F)(F)F)c2)sc2cc(C(F)(F)F)ccc12` (single isomer, unassigned) [Example 70, 3-(5-(1-(2-amino-2-oxoethyl)azepan-4-yl)-2-methoxy-benzamido)-N-(4-fluoro-3-(trifluoromethyl)phenyl)-6-(trifluoromethyl) benzo[b] thiophene-2-carboxamide], the EC50 was determined as 46.8 nM.

In turn, `COc1ccc(C2CCCN(CCO)CC2)cc1C(=O)Nc1c(C(=O)Nc2ccc(F)c(C(F)(F)F)c2)sc2cc(C(F)(F)F)ccc12` (single isomer, unassigned) [Example 72, N-(4-fluoro-3-(trifluoromethyl)phenyl)-3-(5-(1-(2-hydroxyethyl)azepan-4-yl)-2-methoxy-benzamido)-6-(trifluoromethyl) benzo[b] thiophene-2-carboxamide] showed an EC50 of 4310 nM. Then `COc1ccc(C2CCCN(CC(N)=O)CC2)cc1C(=O)Nc1c(C(=O)Nc2ccc(F)c(C(F)(F)F)c2)sc2cc(C(F)(F)F)ccc12` (single isomer, unassigned) [Example 73, 3-(5-(1-(2-amino-2-oxoethyl)azepan-4-yl)-2-methoxy-benzamido)-N-(4-fluoro-3-(trifluoromethyl)phenyl)-6-(trifluoromethyl) benzo[b] thiophene-2-carboxamide], with 1040 nM. `COc1ccc(C2CCC(O)CC2)cc1C(=O)Nc1c(C(=O)Nc2ccc(F)c(C(F)(F)F)c2)sc2cc(C(F)(F)F)ccc12` (single isomer, unassigned) [Example 75, N-(4-fluoro-3-(trifluoromethyl)phenyl)-3-(5-(4-hydroxycyclo-hexyl)-2-methoxy-benzamido)-6-(trifluoromethyl) benzo[b] thiophene-2-carboxamide]: the EC50 amounted to 420 nM. Then `COc1ccc(C2CCC(O)CC2)cc1C(=O)Nc1c(C(=O)Nc2ccc(F)c(C(F)(F)F)c2)sc2cc(C(F)(F)F)ccc12` (single isomer, unassigned) [Example 76, N-(4-fluoro-3-(trifluoromethyl)phenyl)-3-(5-(4-hydroxycyclo-hexyl)-2-methoxy-benzamido)-6-(trifluoromethyl) benzo[b] thiophene-2-carboxamide], with 498 nM; and `COc1ccc(C2CCCNC2)cc1C(=O)Nc1c(C(=O)Nc2ccc(F)c(C(F)(F)F)c2)sc2cc(C(F)(F)F)ccc12` (single isomer, unassigned) [Example 77, N-(4-fluoro-3-(trifluoromethyl)phenyl)-3-(2-methoxy-5-(piperidin-3-yl)benzamido)-6-(trifluoromethyl) benzo[b] thiophene-2-carboxamide], with 469 nM.
